Measured values reported in ChEMBL document CHEMBL1201862, “PubChem BioAssay data set” (2004).
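Where inhibition never reached the appropriate level, the endpoint shown equals the highest concentration tested. Otherwise, values were interpolated linearly from a five-concentration, 48-hour dose response in 96-well plates. GI50 is the concentration that inhibits growth by half.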 Active and inactive are the calls of the source. Rule as the data show it: active = GI50 up to about 1.1 µM and inactive = higher.

Columns and labels:
Assay in all cases: DTP human tumour cell line panel, 48 h
UACC-62 = system: UACC-62
PC-3 = system: PC-3
U-251 = system: U-251
RXF 393 = system: RXF 393
BT-549 = system: BT-549
HOP-62 = system: HOP-62
HL-60 = system: HL-60
SK-OV-3 = system: SK-OV-3
CAKI-1 = system: CAKI-1
MCF7 = system: MCF7
SR = system: SR
OVCAR-5 = system: OVCAR-5
NCI/ADR-RES = system: NCI/ADR-RES
OVCAR-8 = system: OVCAR-8
LOX IMVI = system: LOX IMVI
TK-10 = system: TK-10
Hs-578T = system: Hs-578T
KM12 = system: KM12
OVCAR-4 = system: OVCAR-4
T47D = system: T47D

Measured: GI50

COc1ccc(N2C(=O)CC(c3c[nH]c4ccccc34)C2=O)cc1 (centres undefined)
inactive: UACC-62 > 100 µM | PC-3 > 100 µM | U-251 > 100 µM | RXF 393 > 100 µM | BT-549 > 100 µM | HOP-62 > 100 µM | HL-60 > 100 µM | SK-OV-3 > 100 µM | CAKI-1 > 100 µM | MCF7 > 100 µM | SR > 100 µM | OVCAR-5 > 100 µM | NCI/ADR-RES 97.3 µM | OVCAR-8 > 100 µM | LOX IMVI > 100 µM | TK-10 > 100 µM | Hs-578T 9.08 µM

Nn1c(CCCCCCCCc2nnc(COc3ccc4ccccc4c3O)n2N)nnc1COc1ccc2ccccc2c1O
inactive: KM12 18.7 µM | UACC-62 26.4 µM | PC-3 26.7 µM | U-251 41.4 µM | RXF 393 26.1 µM | BT-549 22.1 µM | SK-OV-3 44 µM | CAKI-1 18.2 µM | MCF7 27.2 µM | OVCAR-5 14.2 µM | NCI/ADR-RES 17.5 µM | OVCAR-4 34.1 µM | TK-10 49.2 µM

N[C@H]1CCN(c2c(F)cc3c(=O)c(C(=O)O)cn4c3c2Oc2cc3c(ccc5ccccc53)cc2-4)C1
inactive: KM12 3.49 µM | UACC-62 6.14 µM | PC-3 2.17 µM | U-251 1.39 µM | RXF 393 6.41 µM | BT-549 6.46 µM | HOP-62 4.06 µM | HL-60 3.79 µM | SK-OV-3 5.61 µM | CAKI-1 3.6 µM | MCF7 2.63 µM | SR 2.52 µM | OVCAR-5 11 µM | NCI/ADR-RES 8.17 µM | OVCAR-4 5.25 µM | OVCAR-8 2.96 µM | LOX IMVI 3.08 µM | TK-10 4.44 µM

CC1C(=O)CC[C@@]2(C)C(=O)CCCC12O (some centres undefined)
inactive: KM12 > 100 µM | UACC-62 > 100 µM | PC-3 > 100 µM | U-251 > 100 µM | RXF 393 > 100 µM | T47D > 100 µM | HOP-62 > 100 µM | HL-60 > 100 µM | SK-OV-3 > 100 µM | CAKI-1 > 100 µM | MCF7 > 100 µM | SR > 100 µM | OVCAR-5 > 100 µM | NCI/ADR-RES > 100 µM | OVCAR-4 > 100 µM | LOX IMVI > 100 µM | TK-10 > 100 µM | Hs-578T > 100 µM

Cc1ccc(NC(=O)CSC(N)=O)cc1C
inactive: KM12 > 100 µM | UACC-62 93.8 µM | PC-3 > 100 µM | U-251 > 100 µM | RXF 393 > 100 µM | T47D > 100 µM | HOP-62 > 100 µM | HL-60 > 100 µM | CAKI-1 > 100 µM | MCF7 31 µM | SR 34.7 µM | OVCAR-5 > 100 µM | NCI/ADR-RES > 100 µM | OVCAR-4 > 100 µM | OVCAR-8 > 100 µM | LOX IMVI 37.9 µM | TK-10 > 100 µM | Hs-578T > 100 µM

Cc1cnc(Cl)nc1C(C#N)c1nc2ccccc2n1C (centres undefined)
inactive: KM12 > 100 µM | U-251 19.5 µM | RXF 393 58.9 µM | BT-549 > 100 µM | T47D 84.9 µM | HOP-62 55.7 µM | SK-OV-3 > 100 µM | CAKI-1 95.3 µM | OVCAR-5 64.3 µM | NCI/ADR-RES 56.1 µM | OVCAR-4 49.1 µM | OVCAR-8 38.6 µM | LOX IMVI 34.1 µM | TK-10 36 µM

O=C1CN(c2cccc(Cl)c2)C(=O)CN1NCNN1CC(=O)N(c2cccc(Cl)c2)CC1=O
inactive: KM12 > 100 µM | UACC-62 > 100 µM | PC-3 > 100 µM | U-251 > 100 µM | RXF 393 > 100 µM | BT-549 > 100 µM | HOP-62 > 100 µM | HL-60 > 100 µM | SK-OV-3 > 100 µM | CAKI-1 > 100 µM | MCF7 > 100 µM | SR > 100 µM | OVCAR-5 > 100 µM | OVCAR-4 > 100 µM | OVCAR-8 > 100 µM | TK-10 > 100 µM | Hs-578T > 100 µM

COc1cc2c(cc1OCCCN1C(=O)c3cccc4cccc(c34)C1=O)N=C[C@@H]1CCCN1C2=O
inactive: KM12 16.3 µM | UACC-62 > 62.7 µM | PC-3 44.8 µM | U-251 39.5 µM | RXF 393 14.9 µM | BT-549 36.6 µM | T47D 19.5 µM | HOP-62 > 86.7 µM | SK-OV-3 > 100 µM | CAKI-1 25.4 µM | MCF7 2.47 µM | SR 1.26 µM | OVCAR-5 > 89.1 µM | NCI/ADR-RES 41.8 µM | OVCAR-4 31.7 µM | OVCAR-8 36.6 µM | LOX IMVI 33.9 µM | TK-10 30.3 µM

COc1ccc(-c2coc3cc(OC)cc(O)c3c2=O)cc1 [4',7-DIMETHOXY-5-HYDROXYGENISTEIN]
inactive: KM12 > 100 µM | UACC-62 > 100 µM | PC-3 > 100 µM | U-251 43.3 µM | RXF 393 27.9 µM | T47D > 100 µM | HOP-62 32.4 µM | HL-60 > 100 µM | SK-OV-3 > 100 µM | CAKI-1 > 100 µM | MCF7 > 100 µM | SR > 100 µM | OVCAR-5 > 100 µM | NCI/ADR-RES > 100 µM | OVCAR-4 > 100 µM | OVCAR-8 > 100 µM | LOX IMVI > 100 µM | TK-10 29.6 µM | Hs-578T 31.1 µM

CC(=O)c1nc2ccccc2n1C(C)C(=O)c1ccccc1 (centres undefined)
inactive: KM12 58.3 µM | UACC-62 33 µM | PC-3 72.1 µM | U-251 57.3 µM | RXF 393 > 100 µM | BT-549 52 µM | HOP-62 57.1 µM | HL-60 29.6 µM | SK-OV-3 69 µM | CAKI-1 61.5 µM | MCF7 22.2 µM | SR 36.3 µM | NCI/ADR-RES 46 µM | OVCAR-4 47.4 µM | OVCAR-8 23.1 µM | LOX IMVI 34.3 µM | TK-10 91.8 µM | Hs-578T 81.1 µM

Cc1nc2cccc(F)c2c(=O)n1-c1nnc(C2CC2)s1
inactive: KM12 > 10 µM | UACC-62 > 10 µM | PC-3 > 10 µM | U-251 > 10 µM | RXF 393 > 10 µM | T47D > 10 µM | HOP-62 > 10 µM | HL-60 > 10 µM | SK-OV-3 > 10 µM | CAKI-1 > 10 µM | MCF7 > 10 µM | SR > 10 µM | OVCAR-5 > 10 µM | NCI/ADR-RES > 10 µM | OVCAR-4 > 10 µM | OVCAR-8 > 10 µM | LOX IMVI > 10 µM | TK-10 > 10 µM | Hs-578T > 10 µM
